Test results taken from article PMC12206033, “Selective inhibition of TRPV3 channel by natural rosmarinic acid and its analogs for alleviation of skin lesions through downregulation of NF-κB pathway” (The Journal of Biological Chemistry, 2025).

Biological target: T1, hTRPV3 (Homo sapiens, UniProt Q8NET8)
T1 construct: expressed in transfected cells; host or cells: HEK293T
T1 sequence (Q8NET8 1-790): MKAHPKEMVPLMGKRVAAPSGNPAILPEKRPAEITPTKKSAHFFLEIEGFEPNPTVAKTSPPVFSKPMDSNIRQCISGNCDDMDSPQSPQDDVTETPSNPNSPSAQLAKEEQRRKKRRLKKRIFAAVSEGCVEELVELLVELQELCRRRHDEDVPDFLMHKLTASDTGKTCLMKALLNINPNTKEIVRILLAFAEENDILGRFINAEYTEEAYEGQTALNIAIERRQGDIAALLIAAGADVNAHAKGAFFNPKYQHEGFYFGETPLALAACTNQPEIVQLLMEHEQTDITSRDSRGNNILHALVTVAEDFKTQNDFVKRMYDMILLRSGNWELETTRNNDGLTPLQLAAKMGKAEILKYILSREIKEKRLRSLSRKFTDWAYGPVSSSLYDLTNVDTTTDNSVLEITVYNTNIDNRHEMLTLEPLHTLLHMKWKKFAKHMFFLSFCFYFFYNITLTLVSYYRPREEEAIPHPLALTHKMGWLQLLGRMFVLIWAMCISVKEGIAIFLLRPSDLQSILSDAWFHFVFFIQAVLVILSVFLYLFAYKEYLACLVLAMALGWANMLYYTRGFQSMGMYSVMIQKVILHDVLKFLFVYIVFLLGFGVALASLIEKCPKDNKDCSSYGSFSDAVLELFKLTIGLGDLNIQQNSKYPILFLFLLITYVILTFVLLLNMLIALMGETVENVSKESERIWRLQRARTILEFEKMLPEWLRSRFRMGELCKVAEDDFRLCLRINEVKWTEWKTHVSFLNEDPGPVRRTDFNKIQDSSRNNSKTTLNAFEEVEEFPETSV
Assay: single-channel inside-out patch recordings of hTRPV3 in HEK293T cells
Format: cell-based
Conditions: for single-channel open probability: n = 5
Procedure: HEK293T cell line was obtained from the Cell Resource Center, Peking Union Medical College. HEK293T cells were maintained in Dulbecco’s modified Eagle’s medium (DMEM, Gibco) supplemented with 10% fetal bovine serum at 37 °C with 5% CO2. HEK293T cells were seeded onto glass coverslips 1 day in advance and transiently transfected with […] complementary deoxyribonucleic acids of human TRPV3 (hTRPV3, accession number NM_145068.4), hTRPV1 (accession number NM_080704.3), mTRPV2 (accession number NM_011706.2), hTRPV4 (accession number NM_021625.5), hTRPA1 (accession number NM_007332.3), and hTRPM8 (accession number NM_024080.5) through Lipofectamine 2000 (Invitrogen) following the manufacture’s protocol. The next day, determine the plasmid transfection status by observing green fluorescence based on expression of enhanced GFP as an indicator. […] As for the relative fluorescence intensity, we convert the image to 8 bit grayscale using ImageJ (Https://imagej.net/software/fiji/downloads) and set an appropriate threshold value to reduce background noise and enhance the image contrast.
All patch-clamp recordings were conducted 16 to 24 h after transfection using an EPC10 amplifier powered by PatchMaster software (HEKA) (https://www.heka.com/downloads/downloads_main.html#down_patchmaster) at room temperature. The borosilicate glass pipettes were pulled using a DMZ universal electrode puller (Zeitz-Instruments GmbH) to achieve the resistances of three to 5 MΩ (for whole-cell recordings) or five to 9 MΩ (for inside-out patch recordings). Currents were recorded at a potential ramp from −100 mV to +100 mV for 1000 ms with 1000-ms intervals (for whole-cell recordings) or a persistent potential of −60 mV (inside-out patch recordings). Both pipette solution and bath solution contained (in mM): 130 NaCl, 3 Hepes, and 0.2 EDTA (pH = 7.2–7.4). All recording data were analyzed using Igor Pro (Wave-metrics) (https://www.wavemetrics.com/order/order_igordownloads.htm) and Origin 8.6 (Origin Lab) (https://www.originlab.com/doc/zh/Quick-Help/Download-Installer).

## O=C(/C=C/c1ccc(O)c(O)c1)O[C@H](Cc1ccc(O)c(O)c1)C(=O)O [ROSA, rosmarinic acid]
ROSA 100 μM co-perfused with 2-APB 50 μM
  single-channel open probability: 0.13 ± 0.05
ROSA 100 μM co-perfused with Car 300 μM
  single-channel open probability: 0.28 ± 0.06
ROSA 100 μM with 2-APB 50 μM or Car 300 μM
  effect on channel unitary conductance: without altering the channel unitary conductance
